These results are taken from a melting point compilation (Tetko et al.; mined from patent text by program, amines drawn as free bases though some values may be those of a salt).

Where only a bound is given, the exact number is not on record here.

The melting point is the temperature of the solid-liquid transition. On to `CCC(=O)Oc1cc(OC)cc(OC)c1C(=O)C=Cc1ccc(OC)cc1`, for which the melting point was 117 to 118 °C.

On to `Clc1cccc2c1C1=NCCN1C1C(c3ccccc3)CCN21` (configuration not stated), for which the melting point lay within 249 to 250 °C.

As for `Cc1ccc(C(=O)Nc2ccc(C#N)cc2)cc1Nc1ncc(-c2cccnc2)o1`, the melting point stood at 203 °C.

On to `CC(C)C(C(=O)CCC(NC(=O)OCc1ccccc1)C(=O)OCc1ccccc1)C(=O)OC(C)(C)C` (configuration not stated), for which the melting point lay within 69 to 71 °C.

Compound `C[C@@H]1S[C@@H](C(=O)Nc2ccc(CN3CCC(=O)CC3)cc2)Cc2cc3c(cc2C1=O)OCO3` returned a melting point of 199 to 201 °C.

`CC(C)(C)c1cc(P(c2ccccc2)c2ccccc2)cc(C(C)(C)C)c1O` yielded a melting point of 92 to 93 °C.

Take `CC(=O)NCC1CN(c2cc(F)c(N3CCN(C(=O)COC(=O)c4ccc(N(C)C)cc4)CC3)c(F)c2)C(=O)O1` (configuration not stated): the melting point lay within 199 to 202 °C.

As for `Cc1cc(Cl)cc2c(=O)oc(-c3cc(Cl)nn3-c3ncccc3Cl)nc12`, the melting point lay in the range of 199 to 201 °C.

`CCc1c(C)[nH]c(=O)c(I)c1Oc1cc(C)cc(C)c1` gave a melting point of 240 °C.

The compound `COc1ccc(C(=O)Nc2ccc3c(c2)CCC3=O)cc1` had a melting point of 237 to 238 °C.

Compound `O=C(Nc1ccc(C(F)(F)F)cc1)[C@H]1[C@H](c2ccccc2)C12CCCC2` (relative stereo) came in with a melting point of 171 to 173 °C.

Compound `N#CC(C(=O)C(F)(F)C(F)(F)F)c1ccccc1` (configuration not stated) showed a melting point of 94 to 95 °C.

`CC(Oc1ccc([N+](=O)[O-])cc1F)c1c(Cl)ccc(F)c1Cl` (configuration not stated) showed a melting point of 110 °C.

As to `CC(C)Oc1ccc(CCC(=O)NS(=O)(=O)c2ccccc2)c(Oc2ncc(C(F)(F)F)cc2Cl)c1`, the melting point is 129 to 130 °C.

The compound `O=C(O)CCCOC(c1ccccc1)(c1ccccc1)c1ccccc1` returned a melting point of 137 to 140 °C.

`CN1CCN(C2=Nc3cc(C(F)(F)F)ccc3Nc3cscc32)CC1` came in with a melting point of 202 °C.

For `COC(=O)c1ccc(Cc2ccc(O)cc2)cn1`, the melting point was in the range of 184 to 186 °C.

The compound `CC(O)=C(C#N)C(=O)Nc1ccc([N+](=O)[O-])c(C)c1` returned a melting point of 231 to 233 °C.

`CNC(=O)c1cc2ccc(OC)cc2n1CCNC(C)=O` showed a melting point of 177 to 178 °C.

Compound `O=C(O)c1cccc(-c2nc(-c3ccccc3F)no2)c1` registered a melting point of 233 to 234 °C.

`CN1CCC(=C2c3ccccc3Sc3ccc(C(=O)O)cc32)CC1` registered a melting point of 319 to 323 °C.

On to `N#CCc1ncccc1[N+](=O)[O-]`, for which the melting point fell in the range of 106 to 108 °C.

In turn, `CCOC(=O)c1cn(C(C)(C)C)c2nc(N3CC4CCC(C3)N4C(=O)C(F)(F)F)c(F)cc2c1=O` had a melting point of 205 °C.

`CC(=O)C1=CCC2C3CCC4CC(O)CCC4(C)C3CCC12C` (configuration not stated): the melting point lay in the range of 186 to 188 °C.

With `COc1ccc(C(N)=O)c(OC)c1-c1ccc(C[C@H](NC(=O)c2c(Cl)cccc2Cl)C(=O)O)cc1`, the melting point lay in the range of 227 to 228 °C.

The compound `CCn1cc(C(=O)O)c(=O)c2cc(F)c(-c3ccncc3)nc21` came in with a melting point of 286 to 288 °C.

The compound `COc1ccc(-n2nc(CC(C)(C)C(=O)O)cc2-c2ccc(Cl)cc2)cc1` gave a melting point of 172 to 174 °C.

Compound `N#Cc1cccc(-c2nnc(-c3cccnc3)s2)c1` returned a melting point of 258 to 261 °C.

With `COc1ccc(Cn2cc(C(=O)C(=O)NC3=CC(=O)OC3)c3ccccc32)cc1`, the melting point lay in the range of 265 to 267 °C.

`O=C(NNS(=O)(=O)c1ccccc1)c1ccccc1Br` displayed a melting point of 154 to 156 °C.

Take `CCOC(=O)C1=C(NC(C)=O)Oc2cc(O)ccc2C1c1cccnc1` (configuration not stated): the melting point was in the range of 216 to 218 °C.

Regarding `O=C1CCC(N2C(=O)c3cccc(CNC(=O)OCc4ccccc4)c3C2=O)C(=O)N1` (configuration not stated), the melting point was 166 to 168 °C.

In the case of `COc1cc2c(c3c1OC(C)(C)C3)C(c1ccncc1)=NC(C)(C)C2`, the melting point fell in the range of 173 to 175 °C.

The compound `C#Cc1ccc([C@H]2CC[C@H](CCCCC)CC2)nn1` registered a melting point of 114 to 116 °C.

In turn, `CS(=O)(=O)c1ccc(C2=C(c3ccc(Cl)cc3)C(=O)N(C3CCCCC3)C2)cc1` registered a melting point of 142 to 144 °C.

The compound `CN(Cc1c2ccccc2cc2ccccc12)C(=O)Nc1ccccc1CCc1cc(C(C)(C)C)c(O)c(C(C)(C)C)c1` gave a melting point of 205 to 206 °C.

With `Nc1ccc(Nc2c(NCc3ccco3)cc(C(=O)O)cc2S(N)(=O)=O)cc1`, the melting point is 232 °C.

Compound `COc1cc(C(C)C(=O)NCC(COC(=O)C(C)(C)C)Cc2ccc(C)c(C)c2)ccc1NS(C)(=O)=O` (configuration not stated) yielded a melting point of 54 to 57 °C.

`CC(CO)NC(=O)c1cnc(N2CCC(N3C(=O)OCc4ccccc43)CC2)c(Cl)c1` (configuration not stated) returned a melting point of 125 to 128 °C.

Compound `COC(=O)Cn1c(C(=O)NC(N)=S)cc2cc(OC)ccc21` gave a melting point of 202 to 206 °C.

Compound `O=Cc1ccn2c1CCC2` displayed a melting point of 58 °C.

For `Cc1cc(C(N)=O)ncc1C(c1c(F)ccc(F)c1F)S(=O)(=O)CC1CC1` (configuration not stated), the melting point was 222 to 223 °C.

Regarding `CSc1nc(=O)cc(C)n1C1CCCCC1`, the melting point lay within 184 to 186 °C.

Compound `CC(=NCc1ccc(Cl)cc1Cl)c1ccc(OCC(O)(Cn2cncn2)C(C)(C)C)cc1` (configuration not stated) had a melting point of 101 °C.

`CCCC(=O)c1c[nH]c2c(OC)cc(OC(=O)c3ccccc3)cc2c1=O`: the melting point was 102 to 104 °C.

With `CCCCCCCCCC=CC(=O)C1C(=O)C=C(C)OC1=O` (configuration not stated), the melting point was in the range of 112 to 113 °C.

As for `CCOC(=O)CCCNc1ccc2oc(-c3ccc4ccc(Cl)cc4n3)cc2c1`, the melting point lay within 154 to 155 °C.

With `COC(=O)c1ncsc1CCNC(=O)OCc1ccccc1`, the melting point fell in the range of 108 to 110 °C.

For the compound `CCOCCOc1cccc2oc(-c3cccs3)cc(=O)c12`, the melting point lay in the range of 111 to 113 °C.

In the case of `O=C(Nc1cccc(F)c1)c1ccccc1O`, the melting point was 157 to 159 °C.

`FC(F)(F)c1ccc(-c2cc(C(F)(F)F)c3ncc(I)n3n2)cc1` gave a melting point of 123 to 125 °C.

Consider `COc1ccc(-c2nc(C(N)=O)cn2-c2ccc(OC)cc2)cc1`, for which the melting point was in the range of 167 to 169 °C.

Regarding `CC1CC(=O)NN=C1c1ccc(Nc2nc(=O)cc[nH]2)cc1` (configuration not stated), the melting point fell in the range of 268 to 270 °C.

Take `COc1cc(O)c(C#N)c2cc(-c3ccc(O)c(F)c3)oc12`: the melting point fell in the range of 265 to 267 °C.

In the case of `OCCc1c2ccccc2cc2ccccc12`, the melting point is 85 to 87 °C.

`Cc1cc(OC(F)(F)F)ccc1O` came in with a melting point of 72 °C.

Regarding `CCCCCc1nc2cc(Cl)c(S(N)(=O)=O)cc2[nH]1`, the melting point is 183 to 185 °C.

For `Cn1cc(C(=O)O)c(=O)c2c3cc(N4CCN(c5ccc(F)c(Cl)c5)CC4)c(Cl)c(F)c3ncc21`, the melting point was over 260 °C.

For the compound `Nc1ncc(-c2cnc3ccc(-c4ccc(OCC5(N)COC5)cc4)nn23)cc1C(F)(F)F`, the melting point was in the range of 198 to 200 °C.

For `NC(=O)Cn1c(-c2ccccc2)nc2cccnc21`, the melting point was in the range of 226 to 227 °C.

As for `CCOC(=O)Nc1ccc(C2CCN(C(=O)OC(C)(C)C)CC2)cc1`, the melting point lay in the range of 126 to 128 °C.

For the compound `Cc1cccc(-c2[nH]c(C(C)C)nc2-c2cccc(-c3ccc(N)cn3)c2)n1`, the melting point lay in the range of 119 to 124 °C.
